Assays:
CCR3 = biological target: T1, CCR3 (Homo sapiens, UniProt P51677); experiment: CCR3 receptor binding assay ([125I]-labeled human eotaxin/CCL11 displacement on cells); conditions: 0.1 nM [125I]-labeled human eotaxin/CCL11, 2×10^5 cells/well, 60 min at room temperature
T1 sequence (P51677 1-355): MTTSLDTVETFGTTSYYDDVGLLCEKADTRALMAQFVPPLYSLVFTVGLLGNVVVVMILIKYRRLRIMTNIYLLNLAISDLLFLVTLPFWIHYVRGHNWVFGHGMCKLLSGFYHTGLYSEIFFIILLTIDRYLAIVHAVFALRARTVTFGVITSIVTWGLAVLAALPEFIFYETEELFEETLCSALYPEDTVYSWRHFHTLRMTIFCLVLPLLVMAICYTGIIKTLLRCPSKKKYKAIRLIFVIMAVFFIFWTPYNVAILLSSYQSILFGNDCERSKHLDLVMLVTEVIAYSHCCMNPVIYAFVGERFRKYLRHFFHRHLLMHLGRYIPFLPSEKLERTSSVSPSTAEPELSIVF
Outline: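 Cells (2×10^5/well) incubated 60 min at room temperature with 0.1 nM [125I]-human eotaxin/CCL11 in 25 mM HEPES pH 7.6, MgCl2, CaCl2, 0.5% BSA. Bound radioactivity counted after filtration and 0.5 M NaCl washes. Non-specific binding defined with 500 nM unlabeled eotaxin.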

Row | SMILES | melting point [°C] | Ki (CCR3) [µM]
1 | O=[N+]([O-])c1ccc(Sc2cc(Cl)ccc2Cl)c(S(=O)(=O)N2CCN(S(=O)(=O)c3ccccc3)CC2)c1 [Compound 204, 1-(2-(2,5-Dichlorophenylthio)-5-nitrophenylsulfonyl)-4-(phenylsulfonyl)-piperazine] | 236 to 239 | > 5
2 | O=C(c1ccco1)N1CCN(S(=O)(=O)c2cc([N+](=O)[O-])ccc2Sc2cc(Cl)ccc2Cl)CC1 [Compound 166, (4-(2-(2,5-Dichlorophenylthio)-5-nitrophenylsulfonyl)piperazin-1-yl)(furan-2-yl)methanone] | 199 to 202 | 
3 | Cc1ccc(C)c(Sc2ccc([N+](=O)[O-])cc2S(=O)(=O)N2CCN(C(=O)c3ccccc3)CC2)c1 [Compound 172, (4-(2-(2,5-Dimethylphenylthio)-5-nitrophenylsulfonyl)piperazin-1-yl)(phenyl)methanone] | 190 to 193 | > 5
4 | O=C(c1ccccc1)N1CCN(S(=O)(=O)c2cc([N+](=O)[O-])ccc2Oc2cc(Cl)ccc2Cl)CC1 [Compound 182, (4-(2-(2,5-Dichlorophenoxy)-5-nitrophenylsulfonyl)piperazin-1-yl)(phenyl)methanone] | 206 to 209 | > 5
5 | CN(C)S(=O)(=O)N1CCN(S(=O)(=O)c2cc([N+](=O)[O-])ccc2Sc2cc(Cl)ccc2Cl)CC1 [Compound 203, 4-(2-(2,5-Dichlorophenylthio)-5-nitrophenylsulfonyl)-N,N-dimethyl-piperazine-1-sulfonamide] | 231 to 234 | > 5
6 | CS(=O)(=O)N1CCN(S(=O)(=O)c2cc([N+](=O)[O-])ccc2Sc2cc(Cl)ccc2Cl)CC1 [Compound 202, 1-(2-(2,5-Dichlorophenylthio)-5-nitrophenylsulfonyl)-4-(methylsulfonyl)-piperazine] | 277 to 281 | > 5
7 | N#Cc1ccc(NC(=O)N2CCN(S(=O)(=O)c3cc([N+](=O)[O-])ccc3Sc3cc(Cl)ccc3Cl)CC2)cc1 [Compound 194, N-(4-Cyanophenyl)-4-(2-(2,5-dichlorophenylthio)-5-nitrophenylsulfonyl)-piperazine-1-carboxamide] |  | > 5
8 | Cc1cc(C)cc(Oc2ccc(C#N)cc2S(=O)(=O)N2CCN(C(=O)CC(C)(C)C)CC2)c1 [Compound 67, 3-(4-(3,3-Dimethylbutanoyl)piperazin-1-ylsulfonyl)-4-(3,5-dimethylphenoxy)benzonitrile] |  | > 5
9 | N/C(=N\[N+](=O)[O-])N1CCN(S(=O)(=O)c2cc([N+](=O)[O-])ccc2Oc2cc(Cl)cc(Cl)c2)CC1 [Compound 154] |  | > 5
10 | O=[N+]([O-])c1ccc(Sc2cc(Cl)ccc2Cl)c(S(=O)(=O)N2CCN(S(=O)(=O)c3ccc(C(F)(F)F)cc3)CC2)c1 [Compound 205, 1-(2-(2,5-dichlorophenylthio)-5-nitrophenylsulfonyl)-4-(4-(trifluoromethyl)phenylsulfonyl)piperazine] | 264 to 267 | > 5
11 | C=CCNC(=O)N1CCN(S(=O)(=O)c2cc([N+](=O)[O-])ccc2Sc2cc(Cl)ccc2Cl)CC1 [Compound 191, N-Allyl-4-(2-(2,5-dichlorophenylthio)-5-nitrophenylsulfonyl)piperazine-1-carboxamide] |  | ≤ 0.05
12 | COc1ccc(C(=O)N2CCN(S(=O)(=O)c3cc([N+](=O)[O-])ccc3Sc3cc(C)ccc3C)CC2)cc1 [Compound 174, (4-(2-(2,5-Dimethylphenylthio)-5-nitrophenylsulfonyl)piperazin-1-yl)(4-methoxyphenyl)methanone] |  | > 5
13 | N#Cc1ccc(Oc2cc(Cl)cc(Cl)c2)c(S(=O)(=O)N2CCN(C(=O)CCCCl)CC2)c1 [Compound 141] |  | ≤ 0.05
14 | CC(C)CC(=O)N1CCN(S(=O)(=O)c2cc(C#N)ccc2Oc2cc(Cl)cc(Cl)c2)CC1 [Compound 72, 4-(3,5-Dichlorophenoxy)-3-(4-(3-methylbutanoyl)piperazin-1-ylsulfonyl)benzonitrile] |  | 0.5 to 5
15 | O=C(Nc1ccc([N+](=O)[O-])cc1)N1CCN(S(=O)(=O)c2cc([N+](=O)[O-])ccc2Sc2cc(Cl)ccc2Cl)CC1 [Compound 195, 4-(2-(2,5-Dichlorophenylthio)-5-nitrophenylsulfonyl)-N-(4-nitrophenyl)-piperazine-1-carboxamide] |  | > 5
16 | CC(C)NC(=O)N1CCN(S(=O)(=O)c2cc(C#N)ccc2Sc2cc(Cl)cc(Cl)c2)CC1 [Compound 100] |  | > 5
17 | Cc1cc(C)cc(Sc2ccc(C#N)cc2S(=O)(=O)N2CCN(C(=O)c3ccccc3)CC2)c1 [Compound 89, 3-(4-Benzoylpiperazin-1-ylsulfonyl)-4-(3,5-dimethylphenylthio)benzonitrile] |  | 0.05 to 0.5
